The text below walks through data of publication PMC9820166, “Salicylate Sodium Suppresses Monocyte Chemoattractant Protein-1 Production by Directly Inhibiting Phosphodiesterase 3B in TNF-α-Stimulated Adipocytes” (International Journal of Molecular Sciences, 2022).

For orientation: IC50 means the concentration that gives 50% inhibition.

In assay [1] the test system is MCP-1 production in TNF-α-stimulated 3T3-L1 pre-adipocytes. Description: Supernatant MCP-1 (ELISA) in TNF-α-stimulated 3T3-L1 pre-adipocytes. It is filed as cell-based, mouse. The method, then: (§1) The adipocytes were pretreated with SAS at different concentrations (0–5 mM) for 1 h and then stimulated with mouse TNF-α (40 ng/mL) at 37 °C for 24 h. The MCP-1 level in supernatant (for 3T3-L1 adipocytes) or subnatant (for primary adipocytes) was determined by ELISA according to the manufacturer’s instruction. The concentration of MCP-1 was calculated from the standard curve.

The subject of a further assay is PKA. Description: Intracellular PKA activity (PepTag assay) in TNF-α-stimulated 3T3-L1 pre-adipocytes. The assay is classed as cell-based, mouse. The note with it: SAS pretreatment 1 h, TNF-α 40 ng/mL 1 h. As to the method: The 3T3-L1 pre-adipocytes were pretreated with SAS for 1 h and then stimulated with TNF-α (40 ng/mL) for further 1 h. The cells were lysed by cold PKA extraction buffer [25 mM Tris-HCl (pH 7.4), 0.5 mM EDTA, 0.5 mM EGTA, 10 mM β-mercaptoethanol, 1 μg/mL leupetin, 1 μg/mL aprotinin and 0.5 mM PMSF] and centrifuged (5000× g) at 4 °C for 10 min. The supernatant was used immediately for PKA activity determination by using a PepTag assay for non-radioactive detection of PKA.

The target of the next assay is human PDE4B (Homo sapiens, UniProt Q07343). The note with it: read-out: IC50 PDE4B activity.
Chain of human PDE4B (Q07343 whole entry): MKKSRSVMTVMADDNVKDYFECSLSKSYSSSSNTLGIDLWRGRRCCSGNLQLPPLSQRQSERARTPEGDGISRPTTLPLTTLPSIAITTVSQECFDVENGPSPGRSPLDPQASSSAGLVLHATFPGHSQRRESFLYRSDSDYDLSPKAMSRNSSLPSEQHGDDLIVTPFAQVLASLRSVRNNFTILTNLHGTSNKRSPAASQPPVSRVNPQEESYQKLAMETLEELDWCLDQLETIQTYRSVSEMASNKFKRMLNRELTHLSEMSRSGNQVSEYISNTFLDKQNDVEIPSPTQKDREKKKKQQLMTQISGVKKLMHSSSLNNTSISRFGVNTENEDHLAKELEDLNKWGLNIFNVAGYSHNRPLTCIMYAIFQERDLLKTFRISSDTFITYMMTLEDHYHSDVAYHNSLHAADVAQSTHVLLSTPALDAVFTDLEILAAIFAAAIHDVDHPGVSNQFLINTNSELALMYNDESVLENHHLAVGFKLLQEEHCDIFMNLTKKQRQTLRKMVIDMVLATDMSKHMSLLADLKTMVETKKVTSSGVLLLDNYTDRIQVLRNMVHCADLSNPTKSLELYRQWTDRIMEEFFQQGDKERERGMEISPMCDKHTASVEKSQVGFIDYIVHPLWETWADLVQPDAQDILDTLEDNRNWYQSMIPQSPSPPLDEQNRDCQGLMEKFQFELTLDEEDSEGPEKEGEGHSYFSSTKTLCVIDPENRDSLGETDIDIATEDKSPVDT
In assay [2] the test system is MCP-1 production in TNF-α-stimulated 3T3-L1 mature adipocytes. Description: Supernatant MCP-1 (ELISA) in TNF-α-stimulated 3T3-L1 mature adipocytes. The assay is classed as cell-based, mouse. The note with it: SAS 0–5 mM pretreatment 1 h, TNF-α 40 ng/mL 24 h. As to the method: The 3T3-L1 pre-adipocytes were cultured and differentiated into mature adipocytes, as previously described, with slight modification. The cells were maintained in M1 medium (DMEM supplemented with 10% FBS, 1 mM sodium pyruvate, 4 mM glutamine and 1% penicillin-streptomycin solution) to reach confluence. Approximately 2 days later (termed day 0), the medium was replaced with M2 medium (M1 medium supplemented with 1.5 μg/mL insulin, 1 μM dexamethasone, 0.5 mM IBMX and 2 μM rosiglitazone). Two days later, the medium was then changed to M3 medium (M1 medium supplemented with 1.5 μg/mL insulin). Two days later, the medium was replaced with M2 for another 2 days. From day 6, the cells were maintained in M3 medium with a medium change every day. About 8–10 days later, a microscope could observe a lot of lipid droplets and the mature adipocytes were obtained.
as §1
Background: In an ELISA, binding on a coated surface is turned into a signal by an enzyme label.

Another assay relates to MCP-1 mRNA stability. The experiment in a line: MCP-1 mRNA stability assay (actinomycin D). It is filed as cell-based, mouse. The following applies: SAS 5 mM, TNF-α 40 ng/mL 2 h then actinomycin D 5 ug/mL. As to the method:
The mRNA stability assay was performed as described previously with modification. The 3T3-L1 pre-adipocytes were stimulated with TNF-α (40 ng/mL) for 2 h, and then treated with actinomycin D (5 ug/mL). SAS (5 mM) was added at different time points (0, 0.5, 2, 4 h). The total RNA were harvested, and the MCP-1 mRNA levels were measured by RT-qPCR analysis.

The subject of the next assay is p-p38. Description: Western blot of p-p38 in TNF-α-stimulated 3T3-L1 pre-adipocytes. It is filed as cell-based, mouse. The following applies: TNF-α 40 ng/mL. As to the method: (§2) The 3T3-L1 pre-adipocytes ([…] per well in 6-well plates) were incubated with SAS for 1 h and then stimulated with mouse TNF-α (40 ng/mL) at 37 °C for indicated time. The total protein was extracted with the mammalian protein extraction kit. For western blot assay, equal amounts of protein samples (30 µg/lane) were separated by 10% sodium dodecyl sulphate-polyacrylamide gel electrophoresis (SDS-PAGE) and then transferred to PVDF membranes. Subsequently, the membranes were blocked with 5% non-fat milk powder in TBST (0.9 mM Tris, 9 mM Tris-HCl, 150 mM NaCl, 0.05% Tween-20) for 2 h at room temperature, and then incubated with various primary antibodies overnight at 4 °C. After being washed by TBST, the membranes were incubated with the corresponding secondary antibodies for 1 h at room temperature. After successive washes, the protein bands were detected using ECL luminescence reagent and photographed by the ChemiDoc XRS+ imaging system (Bio-Rad Technology, Hercules, California, America) or ChemiScope 6000 Exp (Clinx Science Instruments Co., Shanghai, China).

The test system of assay [3] is MCP-1 production in TNF-α-stimulated mouse primary adipocytes. The experiment in a line: Subnatant MCP-1 (ELISA) in TNF-α-stimulated mouse primary adipocytes. It is filed as cell-based. The following applies: SAS 0–5 mM pretreatment 1 h, TNF-α 40 ng/mL 24 h. As to the method:
The mouse primary adipocytes were isolated from normal lean male C57BL/6N mice, as described previously, with modification. In brief, the mice were anesthetized by an intraperitoneal injection of 2,2,2-tribromoethanol (200 mg/kg) and sacrificed via a dislocated neck. The epididymal fat pads were removed, minced and digested by collagenase I (2 mg/mL in DMEM supplemented with 20 mg/mL BSA) at 37 °C for 1 h. The digested tissue was filtered, and the filtrate was centrifuged at 200× g for 5 min. Remove and discard the underlying pellet (containing pre-adipocytes, fibroblasts, and erythrocytes) and media. Re-suspend the remaining fat layer in 10 mL DMEM and centrifuge at 200× g for 5 min. Repeat this step two additional times. The floating top layer containing primary differentiated mature adipocytes was collected and cultured in DMEM supplemented with 10% fetal bovine serum (FBS).
as §1

Another assay deals with intracellular cAMP. The experiment in a line: Intracellular cAMP level (ELISA) in TNF-α-stimulated 3T3-L1 pre-adipocytes. The following applies: SAS pretreatment 1 h, TNF-α 40 ng/mL 1 h. The assay is classed as cell-based, mouse. As to the method:
To determine the time-course change of the TNF-α-induced intracellular cAMP, the 3T3-L1 pre-adipocytes were pretreated with or without SAS (5 mM) for 1 h and then exposed to TNF-α (40 ng/mL) for different time. The cells were lysed, and the changes of intracellular cAMP within 4 h were measured by using a commercial cAMP ELISA kit. To determine the concentration-effect of SAS on intracellular cAMP, 3T3-L1 pre-adipocytes were pretreated with SAS for 1 h at the indicated concentrations and then exposed to TNF-α (40 ng/mL) for further 1 h. The cells were lysed, and the intracellular cAMP level was measured by using a commercial cAMP ELISA kit. The protein concentration of each sample was determined using BCA assay, and the cAMP level of each sample was calculated according to the below formula:cAMP level (pmol/mg protein) = cAMP concentration (pmol/mL)/protein concentration (mg/mL)
A general note: Cyclic AMP is a second messenger, typically raised through Gs and lowered through Gi signalling.

The target of the next assay is T1, recombinant human PDE3B (Homo sapiens, UniProt Q13370).
T1 construct: purchased SignalChem Lifesciences Corporation
T1 sequence (Q13370 whole entry): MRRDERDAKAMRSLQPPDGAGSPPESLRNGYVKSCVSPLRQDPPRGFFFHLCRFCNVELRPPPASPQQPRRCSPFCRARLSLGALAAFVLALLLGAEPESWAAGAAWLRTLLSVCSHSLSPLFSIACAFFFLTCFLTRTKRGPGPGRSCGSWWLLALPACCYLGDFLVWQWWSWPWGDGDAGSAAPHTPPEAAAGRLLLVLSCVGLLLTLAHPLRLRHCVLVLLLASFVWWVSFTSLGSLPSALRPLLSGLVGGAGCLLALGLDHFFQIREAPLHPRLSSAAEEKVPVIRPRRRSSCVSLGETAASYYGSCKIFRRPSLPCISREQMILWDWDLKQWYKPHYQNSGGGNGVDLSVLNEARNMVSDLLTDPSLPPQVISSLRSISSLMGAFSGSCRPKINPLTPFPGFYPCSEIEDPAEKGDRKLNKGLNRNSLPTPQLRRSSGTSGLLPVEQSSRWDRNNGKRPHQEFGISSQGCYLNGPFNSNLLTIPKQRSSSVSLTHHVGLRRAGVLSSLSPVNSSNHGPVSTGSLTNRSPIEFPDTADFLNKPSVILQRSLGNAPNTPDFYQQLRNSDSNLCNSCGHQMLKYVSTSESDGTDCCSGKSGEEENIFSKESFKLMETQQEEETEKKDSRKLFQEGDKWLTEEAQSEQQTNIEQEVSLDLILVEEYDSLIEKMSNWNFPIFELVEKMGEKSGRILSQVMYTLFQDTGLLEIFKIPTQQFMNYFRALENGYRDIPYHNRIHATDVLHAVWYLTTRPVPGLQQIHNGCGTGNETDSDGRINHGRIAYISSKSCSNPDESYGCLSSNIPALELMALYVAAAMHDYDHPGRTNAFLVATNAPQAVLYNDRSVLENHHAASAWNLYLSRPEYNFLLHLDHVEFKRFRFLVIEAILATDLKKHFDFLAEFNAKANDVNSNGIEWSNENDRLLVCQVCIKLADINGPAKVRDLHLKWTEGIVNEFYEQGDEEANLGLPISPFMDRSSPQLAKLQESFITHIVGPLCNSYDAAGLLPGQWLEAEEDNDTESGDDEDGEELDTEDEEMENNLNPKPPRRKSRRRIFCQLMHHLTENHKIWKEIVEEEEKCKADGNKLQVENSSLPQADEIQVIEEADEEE
The experiment in a line: PDE3B activity inhibition (PDE-Glo PDE assay kit). It is filed as biochemical. An excerpt:
(§3) (Fremont, CA, USA). […] All other reagents were of analytical grade.

The next assay deals with MCP-1 mRNA. Description: MCP-1 mRNA level by RT-qPCR in TNF-α-stimulated 3T3-L1 pre-adipocytes. The assay is classed as cell-based, mouse. The note with it: SAS 0–5 mM pretreatment 1 h, TNF-α 40 ng/mL 4 h. As to the method: The adipocytes were pretreated with SAS at different concentrations (0–5 mM) for 1 h and then stimulated with mouse TNF-α (40 ng/mL) at 37 °C for 4 h. The total mRNA was isolated from 3T3-L1 pre-adipocytes by Trizol reagent according to the manufacturer’s instruction. Reverse transcription reactions were conducted by using M-MuLV first strand cDNA synthesis kit. The RT-qPCR analyses were performed on a BIOER Fluorescent Quantitative Detection System (Bioer Technology, Hangzhou, China). The procedure condition was as follows: 95 °C for 30 s, 95 °C for 5 s with 40 cycles, and 62 °C for 30 s. The comparative Ct method (2^−ΔΔCt) was used to analyze the relative intensities. The primer sequences for MCP-1 were as follows: 5′-[…]-3′ (forward) and 5′-[…]-3′ (reverse). The primer sequences for β-actin were as follows: 5′-[…]-3′ (forward) and 5′-[…]-3′ (reverse).
For orientation: Quantitative PCR measures a nucleic acid by following its amplification.

For assay [4], the system named is high-fat diet obese C57BL/6N mice. The experiment in a line: Recruitment of labeled circulating monocytes into adipose tissue of obese mice. It is filed as in vivo, mouse. The note with it: 45 mg/kg/day subcutaneous for 4 days. The method, then: page 7: Figure S7. SAS impedes the recruitment of circulating monocytes into adipose tissue in vivo (n = 4). (A) The fluorescence intensity of monocytes in adipose tissue. Male C57BL/6N mice (18 g - 20 g) were fed with high-fat diet (HFD) for 18 weeks. The obtained obese mice (36 g - 40 g) with enough epididymal adipose tissues were subcutaneously injected with SAS (45 mg/kg/day) for 4 days. Circulating blood monocytes were labeled by intravenous injection of Fluoresbrite YG Carboxylate Microspheres. Three days later, the mice were euthanatized and adipose tissues around epididymis were collected, 1.5 g of adipose tissue was digested by collagenase I. The fluorescence value of digestive juice was read at λex 441 nm and λem 486 nm. **P < 0.01 vs. HFD alone. (B) The photograph of labeled monocytes in adipose tissues. The sectioned adipose tissue (about 0.5 g) for photograph by a laser confocal microscopy using a 20 × objective. Fluorescence-labeled monocytes were shown in green. SAS, salicylate sodium. (1 picture or pasted object on this page, not shown here)

In another assay the test system is MKP-1. The experiment in a line: Western blot of MKP-1 expression in TNF-α-stimulated 3T3-L1 pre-adipocytes. The assay is classed as cell-based, mouse. The note with it: 2 h after TNF-α stimulation. The method, then: as §2
Another assay addresses T2, human PDE3A (Homo sapiens, UniProt Q14432).
T2 construct: purchased Sino Biological Inc
The experiment in a line: PDE3A activity inhibition. The assay is classed as biochemical.
Excerpt: as §3

For a further assay, the system named is p-ERK. Description: Western blot of p-ERK in TNF-α-stimulated 3T3-L1 pre-adipocytes. The assay is classed as cell-based, mouse. The following applies: TNF-α 40 ng/mL. The method, then:
as §2

The mark [5] stands for this setting: 200 μM pretreatment 1 h, TNF-α 40 ng/mL 24 h.

T2 sequence (Q14432 whole entry): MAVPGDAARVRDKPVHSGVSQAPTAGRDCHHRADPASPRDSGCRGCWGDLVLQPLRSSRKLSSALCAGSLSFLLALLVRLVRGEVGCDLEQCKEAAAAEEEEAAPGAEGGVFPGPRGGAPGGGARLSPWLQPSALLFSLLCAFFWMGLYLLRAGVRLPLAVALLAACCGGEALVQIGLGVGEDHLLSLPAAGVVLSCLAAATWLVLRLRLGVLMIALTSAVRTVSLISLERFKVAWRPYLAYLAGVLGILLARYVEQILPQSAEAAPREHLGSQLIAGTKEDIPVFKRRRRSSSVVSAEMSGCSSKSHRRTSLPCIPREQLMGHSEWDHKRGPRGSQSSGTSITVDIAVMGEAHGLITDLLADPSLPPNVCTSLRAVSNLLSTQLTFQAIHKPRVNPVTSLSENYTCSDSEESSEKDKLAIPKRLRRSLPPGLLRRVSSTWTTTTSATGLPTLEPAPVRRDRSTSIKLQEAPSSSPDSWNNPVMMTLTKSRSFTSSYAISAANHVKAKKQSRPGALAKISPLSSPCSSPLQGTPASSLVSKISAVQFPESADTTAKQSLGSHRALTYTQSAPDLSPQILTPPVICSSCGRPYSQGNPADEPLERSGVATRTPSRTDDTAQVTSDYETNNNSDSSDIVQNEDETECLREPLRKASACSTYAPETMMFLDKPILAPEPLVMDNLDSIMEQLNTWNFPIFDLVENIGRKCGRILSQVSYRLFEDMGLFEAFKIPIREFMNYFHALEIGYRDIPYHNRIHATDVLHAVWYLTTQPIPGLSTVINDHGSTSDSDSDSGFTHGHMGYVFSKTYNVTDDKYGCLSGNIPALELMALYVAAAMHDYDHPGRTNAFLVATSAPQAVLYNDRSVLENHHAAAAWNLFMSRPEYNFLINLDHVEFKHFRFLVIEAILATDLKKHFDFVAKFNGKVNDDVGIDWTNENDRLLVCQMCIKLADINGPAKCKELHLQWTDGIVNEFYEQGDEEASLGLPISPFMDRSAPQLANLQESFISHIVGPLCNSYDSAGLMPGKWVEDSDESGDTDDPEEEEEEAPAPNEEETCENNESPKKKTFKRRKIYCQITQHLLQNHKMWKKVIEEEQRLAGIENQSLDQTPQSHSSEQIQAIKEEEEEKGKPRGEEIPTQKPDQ

As for `NC(=O)c1ncn([C@@H]2O[C@H](CO)[C@@H](O)[C@H]2O)c1N` [AICAR], in assay [1] (100 μM pretreatment 1 h, TNF-α 40 ng/mL 24 h), the “Effect on MCP-1 production” value is “did not decrease the MCP-1 production”.

Take `c1cc(-c2cnn3cc(-c4ccc(OCCN5CCCCC5)cc4)cnc23)ccn1` [Compound C]: the “Effect of AMPK inhibitor on the MCP-1-lowering effect of SAS” value in [1] (co-treatment with SAS, TNF-α-stimulated) is reported as “could not antagonize the effect of SAS”.

On to `O=S(=O)(NCCNC/C=C/c1ccc(Br)cc1)c1cccc2cnccc12` [H89], for which the “Effect of PKA antagonist on the MCP-1-lowering effect of SAS” value in assay [1] (100 nM, with SAS, TNF-α-stimulated) was “abolished the effect of SAS on MCP-1”.

For `Nc1ncnc2c1ncn2[C@@H]1O[C@@H]2CO[P@@](O)(=S)O[C@H]2[C@H]1O` [RP-cAMPS], the “Effect of cAMP antagonist on the MCP-1-lowering effect of SAS” value in [1] (100 μM, with SAS, TNF-α-stimulated) was “abolished the effect of SAS on MCP-1”.

For `O=C(O)c1ccccc1O` [SAS, salicylate sodium], the “Effect on intracellular PKA activity” value in the assay with PKA is “elevated the intracellular PKA activity”. In addition, the results for the half-maximal inhibitory concentration (IC50) at human PDE4B, at recombinant human PDE3B and against human PDE3A were 0.81 mM, 13.8 mM and 6 mM, respectively. Moreover, the “Effect on MCP-1 production (supernatant)” value in [2] is listed as “significantly decreased MCP-1 production”; in [1] (3T3-L1 pre-adipocytes, SAS 0–5 mM pretreatment 1 h, TNF-α 40 ng/mL 24 h), “significantly decreased MCP-1 production”. Also, in the assay with MCP-1 mRNA stability, the “Effect on MCP-1 mRNA stability” value was “did not affect the mRNA stability of MCP-1”. In addition, the “Effect on p-p38 level” value in the assay on p-p38 is “concentration-dependently decrease the levels of p-ERK and p-p38”. The “Effect on MCP-1 production (subnatant)” value in [3] is reported as “significantly decreased MCP-1 production”. Besides, in the assay on intracellular cAMP, the “Effect on TNF-α-caused reduction of intracellular cAMP” value was “could prevent this decrease in a concentration-dependent manner”. Besides, the “Effect on MCP-1 mRNA level” value with MCP-1 mRNA is recorded as “concentration-dependently decreased the MCP-1 mRNA level”. In addition, the “Recruitment of circulating monocytes into adipose tissue” value in assay [4] is on record as “markedly prevented the recruitment of circulating monocytes into the adipose tissue”. Also, in the assay on MKP-1, the “Effect on MKP-1 expression” value is given as “maintained the expression of MKP-1 at 2 h”. Further, the “Effect of SAS on MCP-1 in IKKβ-deficient cells” value in assay [1] (IKKβ siRNA knockdown 3T3-L1 pre-adipocytes) is “did not impact the effect of SAS on MCP-1”. The “Effect of SAS on MCP-1 in PDE3B-deficient cells” value in assay [1] (PDE3B siRNA knockdown 3T3-L1 pre-adipocytes vs scrambled siRNA) is “almost disappeared”. Besides, the “Concentration that impedes MCP-1 expression in adipocytes” value in assay [1] (in vitro, adipocytes (Figure 2)) lay within 1.25 to 5 mM. The “Effect on p-ERK level” value with p-ERK is “concentration-dependently decrease the levels of p-ERK and p-p38”.

Take `CN(C(=O)CCCOc1ccc2[nH]c(=O)ccc2c1)C1CCCCC1` [cilostamide]: the “Effect on MCP-1 production” value in assay [1] (setting [5]) was “suppressed the MCP-1 production”.

Consider `Cc1[nH]c(=O)c(C#N)cc1-c1ccncc1` [milrinone], for which, in assay [1] (setting [5]), the “Effect on MCP-1 production” value is recorded as “suppressed the MCP-1 production”.
